# According to patent EP0318860B1, “Substituted alkylamine derivatives” (BANYU PHARMACEUTICAL CO., LTD., priority 1987, dated 1989):
# Counter-ions that a name gives are not always drawn.
# Target: T1, rat squalene epoxidase (Rattus norvegicus, UniProt P52020)
# T1 construct: Livers were extracted and homogenized; from tissue; host or cells: liver of SD-strain female rats; microsomes solubilized with 2 % Triton X-100, 105000 x g supernatant
# Assay: Squalene epoxidase inhibiting activity (3H-squalene to squalene-2,3-epoxide, solubilized liver microsome fraction)
# Type: biochemical
# Conditions: 8 µM 3H-squalene, 37 °C, 30 minutes, read-out: 50 % inhibitory concentration (IC50)
# Description: The rat squalene epoxidase was prepared by the method described in J. Biol. Chem., vol.
# SD-strain female rats were killed by exsanguination. Livers were extracted and homogenized with in the presence of 2 volumes of 0.1M Tris-HCl buffer (pH 7.5). The homogenate was centrifuged at 9750 Xg for 10 minutes. The supernatant fraction was further centrifuged at 105000 Xg for 1 hour. The sediment was washed with 0.1M Tris-HCl buffer (pH 7.5), and then centrifuged at 105000 Xg for 1 hour. The microsomes obtained were suspended in 0.1M Tris-HCl buffer (pH 7.5) so that the amount of proteins was 40 mg/ml, and under ice cooling, the suspension was stirred in the presence of 2 % Triton X-100 to solubilize the enzyme. After the solubilization, the solution was diluted to a Triton X-100 concentration of 0.5 % with 1 mM EDTA and 1 mM dithiothreitol, and centrifuged at 105000 Xg for 1 hour. The resulting supernatant fraction was used in the following test as a squalene epoxidase fraction.
# The squalene epoxidase activity was assayed in accordance with the method described in J. Biol. Chem., vol.
# Three microliters of a dimethyl sulfoxide solution of a test drug was added to a solution composed of 0.2 ml of the squalene epoxidase fraction prepared in (1) [proteins 0.4 mg, 0.5 % Triton X-100, […] Tris-HCl buffer (pH 7.5)], 100 µM FAD, 1 mM NADPH, 1 mM EDTA and 8 µM ³H-squalene-Tween 80 emulsion to adjust the total amount of the solution to 0.3 ml. The solution was incubated at 37 °C for 30 minutes with shaking. Then, 0.3 ml of a 10 % methanolic potassium hydroxide was added to stop the reaction, and the reaction mixture was left to stand at room temperature for 1 hour. The non-saponified material was extracted with petroleum ether, and the solvent was evaporated under a nitrogen stream. […] The position of the resulting ³H-squalene-2,3-epoxide on TLC was determined using ergosterol acetate as a marker, and the ³H-squalene-2,3-epoxide portion on the TLC was cut off. The TLC strip was immersed in a toluene-type scintillator, and measured by a liquid scintillation counter.
# T1 sequence (P52020 whole entry): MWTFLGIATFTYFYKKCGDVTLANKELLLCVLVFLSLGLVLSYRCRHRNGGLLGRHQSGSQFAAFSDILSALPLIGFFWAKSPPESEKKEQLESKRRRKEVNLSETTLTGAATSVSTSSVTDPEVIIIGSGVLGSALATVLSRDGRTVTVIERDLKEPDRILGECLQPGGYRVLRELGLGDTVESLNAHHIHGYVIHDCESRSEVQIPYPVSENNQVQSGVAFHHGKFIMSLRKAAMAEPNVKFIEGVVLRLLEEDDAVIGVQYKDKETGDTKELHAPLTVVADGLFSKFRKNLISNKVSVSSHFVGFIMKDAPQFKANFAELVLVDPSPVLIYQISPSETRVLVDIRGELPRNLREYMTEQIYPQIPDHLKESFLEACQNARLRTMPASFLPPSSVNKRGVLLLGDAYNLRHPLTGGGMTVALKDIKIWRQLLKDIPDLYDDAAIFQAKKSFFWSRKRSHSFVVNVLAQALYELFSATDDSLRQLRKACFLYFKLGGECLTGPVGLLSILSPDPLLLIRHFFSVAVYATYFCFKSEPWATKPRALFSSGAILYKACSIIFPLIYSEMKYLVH
row,Compound,IC50 [nM]
1,"CN(C/C=C/C#CC(C)(C)C)Cc1cccc(OCc2cccc(C=O)c2)c1 [Compound 95, (E)-N-(6,6-dimethyl-2-hepten-4-ynyl)-N-methyl-3-(3-formylbenzyloxy)benzylamine]",6800
2,"C=C(C)Cc1cccc(COc2cccc(CN(C)C/C=C/C#CC(C)(C)C)c2)c1 [Compound 71, (E)-N-(6,6-dimethyl-2-hepten-4-ynyl)-N-methyl-3-[3-(2-methyl-2-propenyl)benzyloxy]benzylamine]",540
3,"CC(C)(C)C#C/C=C/CNCc1cccc(OCc2ccccc2)c1 [Compound 1, (E)-N-(6,6-dimethyl-2-hepten-4-ynyl)-3-benzyloxybenzylamine]",6800
4,"Cc1cc(CN(C)C/C=C/C#CC(C)(C)C)cc(OCc2ccccc2)c1 [Compound 48, (E)-N-(6,6-dimethyl-2-hepten-4-ynyl)-N-methyl-3-benzyloxy-5-methylbenzylamine hydrochloride]",5100
5,"Cc1ccccc1/C=C/c1cccc(CN(C)C/C=C/C#CC(C)(C)C)c1 [Compound 99, N-[(E)-6,6-dimethyl-2-hepten-4-ynyl]-N-methyl-3-[(E)-o-methylstyryl]benzylamine]",2000
6,"C#CCN(C/C=C/C#CC(C)(C)C)Cc1cccc(OCc2ccccc2)c1 [Compound 42, (E)-N-(6,6-dimethyl-2-hepten-4-ynyl)-N-propargyl-3-benzyloxybenzylamine]",9600
7,"CC(C)=CCc1cccc(COc2cccc(CN(C)C/C=C/C#CC(C)(C)C)c2)c1 [Compound 72, (E)-N-(6,6-dimethyl-2-hepten-4-ynyl)-N-methyl-3-[3-(3-methyl-2-butenyl)benzyloxy]benzylamine]",9700
8,"COC(C)(C)C#C/C=C/CN(C)Cc1cccc(OCc2ccccc2)c1 [Compound 126, (E)-N-(6-methoxy-6-methyl-2-hepten-4-ynyl)-N-methyl-3-benzyloxybenzylamine]",2200
9,"CC(C)=CCOc1cccc(COc2cccc(CN(C)C/C=C/C#CC(C)(C)C)c2)c1 [Compound 73, (E)-N-(6,6-dimethyl-2-hepten-4-ynyl)-N-methyl-3-[3-(3-methyl-2-butenyloxy)benzyloxy]benzylamine]",2300
10,"C=C(C)c1cccc(COc2cccc(CN(C)C/C=C/C#CC(C)(C)C)c2)c1 [Compound 69, (E)-N-(6,6-dimethyl-2-hepten-4-ynyl)-N-methyl-3-(3-isopropenylbenzyloxy)benzylamine]",510
11,"CN(C/C=C/C#CC(C)(C)C)Cc1cccc(OCc2cccc(C(F)(F)F)c2)c1 [Compound 57, (E)-N-(6,6-dimethyl-2-hepten-4-ynyl)-N-methyl-3-(3-trifluoromethylbenzyloxy)benzylamine hydrochloride]",3100
12,"CN(C/C=C/C#CC(C)(C)C)Cc1cccc(C#Cc2ccccc2)c1 [Compound 101, (E)-N-(6,6-dimethyl-2-hepten-4-ynyl)-N-methyl-3-(2-phenylethynyl)benzylamine]",2100
13,"CCN(C/C=C/C#CC(C)(C)C)Cc1cccc(OCc2cccc(-c3cnco3)c2)c1 [Compound 120, (E)-N-(6,6-dimethyl-2-hepten-4-ynyl)-N-ethyl-3-[3-(5-oxazolyl)benzyloxy]benzylamine]",2.7
14,"CN(C/C=C/C#CC(C)(C)C)Cc1cccc(OCCCc2ccccc2)c1 [Compound 58, (E)-N-(6,6-dimethyl-2-hepten-4-ynyl)-N-methyl-3-(3-phenylpropoxy)benzylamine hydrochloride]",7900
15,"CN(C/C=C/C#CC(C)(C)C)Cc1cccc(OCc2ccccc2Cl)c1 [Compound 56, (E)-N-(6,6-dimethyl-2-hepten-4-ynyl)-N-methyl-3-(2-chlorobenzyloxy)benzylamine]",2100
16,"Cc1ccc(COc2cccc(CN(C)C/C=C/C#CC(C)(C)C)c2)cc1 [Compound 54, (E)-N-(6,6-dimethyl-2-hepten-4-ynyl)-N-methyl-3-(4-methylbenzyloxy)benzylamine]",1800
17,"CN(C/C=C/C#CC(C)(C)C)Cc1cccc(OCc2ccccc2C#N)c1 [Compound 67, (E)-N-(6,6-dimethyl-2-hepten-4-ynyl)-N-methyl-3-(2-cyanobenzyloxy)benzylamine hydrochloride]",2400

row,Compound,IC50 [nM]
1,"CN(C/C=C/C#CC(C)(C)C)Cc1ccc(F)c(OCc2ccccc2)c1 [Compound 49, (E)-N-(6,6-dimethyl-2-hepten-4-ynyl)-N-methyl-3-benzyloxy-4-fluorobenzylamine]",4900
2,"CN(C/C=C/C#CC(C)(C)C)Cc1cccc(OCc2cccc(-c3ncco3)c2)c1 [Compound 76, (E)-N-(6,6-dimethyl-2-hepten-4-ynyl)-N-methyl-3-[3-(2-oxazolyl)benzyloxy]benzylamine]",1200
3,"Cc1ccoc1COc1cccc(CN(C)C/C=C/C#CC(C)(C)C)c1 [Compound 82, (E)-N-(6,6-dimethyl-2-hepten-4-ynyl)-N-methyl-[(3-methyl-2-furyl)methyloxy]benzylamine]",870
4,"CN(C/C=C/C#CC(C)(C)C)Cc1cccc(OCc2ccco2)c1 [Compound 34, (E)-N-(6,6-dimethyl-2-hepten-4-ynyl)-N-methyl-3-furfuryloxybenzylamine]",1700
5,"C/C=C(\C)COc1cccc(CN(C)C/C=C/C#CC(C)(C)C)c1 [Compound 90, N-[(E)-6,6-dimethyl-2-hepten-4-ynyl]-N-methyl-3-[(E)-2-methyl-2-butenyloxy]benzylamine hydrochloride]",5500
6,"Cc1cccc(COc2cccc(CN(C)C/C=C/C#CC(C)(C)C)c2)c1C [Compound 55, (E)-N-(6,6-dimethyl-2-hepten-4-ynyl)-N-methyl-3-(2,3-dimethylbenzyloxy)benzylamine hydrochloride]",600
7,"CN(C/C=C/c1ccccc1)Cc1cccc2ccccc12 [naftifine, reference compound]",> 100000
8,"COc1ccccc1COc1cccc(CN(C)C/C=C/C#CC(C)(C)C)c1 [Compound 51, (E)-N-(6,6-dimethyl-2-hepten-4-ynyl)-N-methyl-3-(2-methoxybenzyloxy)benzylamine hydrochloride]",1100
9,"CN(C/C=C/C#CC(C)(C)C)Cc1cccc(CNc2ccccc2)c1 [Compound 104, (E)-N-[6,6-dimethyl-2-hepten-4-ynyl]-N-methyl-3-anilinomethylbenzylamine hydrochloride]",7700
10,"Cc1occc1COc1cccc(CN(C)C/C=C/C#CC(C)(C)C)c1 [Compound 83, (E)-N-(6,6-dimethyl-2-hepten-4-ynyl)-N-methyl-3-[(2-methyl-3-furyl)methyloxy]benzylamine]",1900
11,"Cc1cccc(COc2cccc(CN(C)C/C=C/C#CC(C)(C)C)c2)c1 [Compound 53, (E)-N-(6,6-dimethyl-2-hepten-4-ynyl)-N-methyl-3-(3-methylbenzyloxy)benzylamine]",660
12,"CN(C/C=C/C#CC(C)(C)C)Cc1ccc(O)c(OCc2ccccc2)c1 [Compound 50, (E)-N-(6,6-dimethyl-2-hepten-4-ynyl)-N-methyl-3-benzyloxy-4-hydroxybenzylamine hydrochloride]",2100
13,"Cc1ccccc1COc1ccnc(CN(C)C/C=C/C#CC(C)(C)C)c1 [Compound 112, (E)-N-(6,6-dimethyl-2-hepten-4-ynyl)-N-methyl-4-(2-methylbenzyloxy)-2-pyridylmethylamine]",690
14,"CN(C/C=C/C#CC(C)(C)C)Cc1cccc(/C=C/c2ccccn2)c1 [Compound 108, (E)-N-(6,6-dimethyl-2-hepten-4-ynyl)-N-methyl-3-[(E)-2-(2-pyridyl)vinyl]benzylamine]",450
15,"CN(C/C=C/C#CC(C)(C)C)Cc1cccc(/C=C/c2cccc3ccccc23)c1 [Compound 100, N-[(E)-6,6-dimethyl-2-hepten-4-ynyl]-N-methyl-3-[(E)-2-(1-naphthylvinyl)]benzylamine]",120
16,"Cc1ccccc1COc1cccc(CN(C)C/C=C/C=C/C(C)(C)C)c1 [Compound 132, (E),(E)-N-(6,6-dimethyl-2,4-heptadienyl)-N-methyl-3-(2-methylbenzyloxy)benzylamine]",5400
17,"COc1cccc(COc2cccc(CN(C)C/C=C/C#CC(C)(C)C)c2)c1 [Compound 52, (E)-N-(6,6-dimethyl-2-hepten-4-ynyl)-N-methyl-3-(3-methoxybenzyloxy)benzylamine hydrochloride]",1400
